Where “and” joins values, the source holds several entries; their conditions need not be identical. Equal entries are not always repeated.
Columns and labels:
[1] = tested on: B. caballi (USDA strain); assay: in vitro growth inhibition assay (SYBR Green I fluorescence), single drug and 1:1 combination; format: cell-based, Babesia caballi; conditions: B. caballi in vitro culture, 4 days
Procedure: (§1) A microaerophilic stationary-phase culture system was used to maintain Babesia parasite cultures for a long time. Briefly, B. caballi (USDA strain) was grown using equine red blood cells (RBCs) in GIT medium supplemented with 40% equine serum. Theileria equi (USDA strain) was grown in equine RBCs in Medium 199 (M199; Sigma-Aldrich, Tokyo) supplemented with 40% equine serum, and hypoxanthine (MP Biomedicals, Santa Ana, CA, USA) at a final concentration of 13.6 μg/ml was used as a vital supplement. Babesia bovis (Texas strain) and B. bigemina (Argentina strain) were grown in bovine RBCs in M199 medium supplemented with 40% bovine serum. Meanwhile, B. divergens (Germany strain) was grown in bovine RBCs in medium RPMI 1640 (Sigma-Aldrich, Tokyo) supplemented with 40% bovine serum. All media included 60 U/ml penicillin G, 60 μg/ml streptomycin and 0.15 μg/ml amphotericin B (Sigma-Aldrich, St. Louis, MO, USA) to prevent bacterial contamination. The cultures were incubated at 37 °C in a humidified chamber with an atmosphere of 5% CO2, 5% O2 and 90% N2. Babesia microti (Munich strain) was recovered from − 80 °C stock, intraperitoneally injected in two 8-week old female BALB/c mice (Clea Japan, Tokyo, Japan), and the parasitemia was monitored every 2 days. The mice were euthanized using an anesthesia system containing isoflurane after parasitemia reached approximately 30%, and blood was collected by cardiac puncture to initiate the in vivo experiment. The animal experiment was conducted in accordance with the Regulations for Animal Experiments of Obihiro University of Agriculture and Veterinary Medicine, Japan (animal experiment accession number: 290168).
(§2) Assays were performed in accordance with the previously described protocol. Briefly, B. bovis, B. bigemina, B. divergens, B. caballi and T. equi cultures were harvested and adjusted to 1% parasitemia with fresh RBCs to start the inhibition assay. The assays were carried out using 96-well microtiter plates where only the 60 inner wells were used, while the peripheral wells were filled with sterile distillate water to reduce evaporation during incubation. In five 96-well plates, a volume of 2.5 µl each of B. bigemina- and B. bovis-iRBCs and 5 µl each of B. divergens-, B. caballi- and T. equi-iRBCs were added to each well in triplicate and mixed with a culture medium containing the drug concentrations to a total volume of 100 µl. Various concentrations of EA, β-CD EA, APSP EA, DA, CF and AQ were dissolved in a culture medium using two-fold dilution. Wells containing DMSO at a final concentration of 0.4% and iRBCs were used as a positive control, while wells with non-infected RBCs and culture medium were used as a negative control. Additionally, a drug combination assay was performed in parallel with the single drug assay at a constant ratio of 1:1, as described previously. […] The plates were incubated in a humidified incubator with 5% CO2, 5% O2 and 90% N2 for 4 days without changing the medium. On day 4, 100 µl of a lysis buffer containing 2 × SG1 was added to each well. The plates were wrapped with aluminum foil to avoid direct light exposure and incubated at room temperature. After 6 h, fluorescence values were measured using a fluorescence spectrophotometer (Fluoroskan Ascent; Thermo LabSystems, Oceanside, CA, USA) with excitation and emission wavelengths of 485 and 518 nm, respectively. The fluorescence data were subtracted from the negative control and used to calculate the IC50. […]

[2] = tested on: human foreskin fibroblast (HFF) cell line; assay: cytotoxicity assay (CCK-8); format: cell-based; conditions: for EC50: HFF cells, 24 h exposure, CCK-8; for inhibition of cell viability: HFF, 100 µM, separate assay
Procedure: (§3) The MDBK cell line was maintained in 75 cm^2 culture flasks with Minimum Essential Medium Eagle (MEM; Gibco, Grand Island, NY, USA), while Dulbecco’s Modified Eagle’s Medium (DMEM; […] Each medium was supplemented with 10% fetal bovine serum, 0.5% penicillin/streptomycin (Gibco), and an additional 1% glutamine. Every 3 to 4 days, the medium was changed, and the cells were incubated until approximately 80% confluent. The cells were free from mycoplasma contamination after being checked by staining with 4,6-diamidino-2-phenylindole dihydrochloride (DAPI; Sigma-Aldrich, St. Louis). The cell detachment from the culture flask was done using TrypLE^TM Express (Gibco) after washing two times with Dulbecco’s phosphate-buffered saline (DPBS). Subsequently, viable cells were counted using a Neubauer Improved C-Chip (NanoEnTek Inc., Seoul, Korea) after staining with 0.4% trypan blue solution. The drug-exposure viability assay was performed in accordance with the recommendation for the Cell Counting Kit-8 (CCK-8; Dojindo, Kumamoto, Japan). Briefly, in a 96-well plate, 100 µl of cells at a density of 5 × 10^4 cells/ml were seeded per well and allowed to attach to the plate for 24 h at 37 °C in a humidified incubator with 5% CO2. Ten microliters of drug diluted two-fold were added to each well to a final concentration of 0.781 to 800 µM in triplicate. Wells with only a culture medium were used as blanks, while wells containing cells and a medium with 0.5% DMSO were used as positive controls. Drug exposure lasted for 24 h. After 24 h, 10 µl of CCK-8 was added, and the plate was further incubated for 3 h. Absorbance was measured at 450 nm using a microplate reader.

[3] = tested on: mouse embryonic fibroblast (NIH/3T3) cell line; assay: cytotoxicity assay (CCK-8); format: cell-based; conditions: for inhibition of cell viability: NIH/3T3, 100 µM, separate assay; for EC50: NIH/3T3 cells, 24 h exposure, CCK-8
Procedure: as §3

[4] = tested on: Madin-Darby bovine kidney (MDBK) cell line; assay: cytotoxicity assay (CCK-8); format: cell-based; conditions: for EC50: MDBK cells, 24 h exposure, CCK-8; for inhibition of cell viability: 100 µM, separate assay
Procedure: as §3

[5] = tested on: B. bigemina (Argentina strain); assay: in vitro growth inhibition assay (SYBR Green I fluorescence), single drug and 1:1 combination; format: cell-based, Babesia bigemina; conditions: B. bigemina in vitro culture, 4 days
Procedure: as §1, §2

[6] = tested on: B. microti; assay: nested PCR detection of B. microti ss-rRNA gene in blood of treated mice; format: in vivo, Babesia microti; conditions: day 42
[7] = tested on: B. divergens (Germany strain); assay: in vitro growth inhibition assay (SYBR Green I fluorescence), single drug and 1:1 combination; format: cell-based, Babesia divergens; conditions: B. divergens in vitro culture, 4 days
Procedure: as §1, §2

[8] = tested on: Babesia microti (Munich strain); assay: in vivo growth inhibition and drug combination assays in B. microti-infected BALB/c mice; conditions: for peak parasitemia level: 5 days
Procedure: as §1
In vivo growth inhibition assays of EA, β-CD EA and APSP EA were performed in B. microti-infected BALB/c mice in accordance with the previous protocol in two separate trials. […] The mice in groups 2–8 were intraperitoneally (i.p.) injected with 0.5 ml of inoculum (1 × 10^7 B. microti-iRBCs). Group 1 was left uninfected and untreated as a negative control. When the average parasitemia in all mice reached 1%, drug treatment was initiated for 5 consecutive days. […] DA at a concentration of 25 mg/kg body weight (BW) was administrated i.p. to the third group as a reference drug control.

[9] = tested on: Theileria equi (USDA strain); assay: in vitro growth inhibition assay (SYBR Green I fluorescence), single drug and 1:1 combination; format: cell-based; conditions: T. equi in vitro culture, 4 days
Procedure: as §1
(§4) Assays were performed in accordance with the previously described protocol. Briefly, B. bovis, B. bigemina, B. divergens, B. caballi and T. equi cultures were harvested and adjusted to 1% parasitemia with fresh RBCs to start the inhibition assay. The assays were carried out using 96-well microtiter plates where only the 60 inner wells were used, while the peripheral wells were filled with sterile distillate water to reduce evaporation during incubation. In five 96-well plates, a volume of 2.5 µl each of B. bigemina- and B. bovis-iRBCs and 5 µl each of B. divergens-, B. caballi- and T. equi-iRBCs were added to each well in triplicate and mixed with a culture medium containing the drug concentrations to a total volume of 100 µl. Various concentrations of EA, β-CD EA, APSP EA, DA, CF and AQ were dissolved in a culture medium using two-fold dilution. Wells containing DMSO at a final concentration of 0.4% and iRBCs were used as a positive control, while wells with non-infected RBCs and culture medium were used as a negative control. Additionally, a drug combination assay was performed in parallel with the single drug assay at a constant ratio of 1:1, as described previously. […] The plates were incubated in a humidified incubator with 5% CO2, 5% O2 and 90% N2 for 4 days without changing the medium. On day 4, 100 µl of a lysis buffer containing 2 × SG1 was added to each well. The plates were wrapped with aluminum foil to avoid direct light exposure and incubated at room temperature. After 6 h, fluorescence values were measured using a fluorescence spectrophotometer (Fluoroskan Ascent; Thermo LabSystems, Oceanside, CA, USA) with excitation and emission wavelengths of 485 and 518 nm, respectively. The fluorescence data were subtracted from the negative control and used to calculate the IC50. To calculate the degree of association, the growth-inhibition values obtained were entered into CompuSyn software, based on the combination index (CI) values. […] The experiments were repeated three times.

[10] = tested on: Babesia bovis (Texas strain); assay: as above; format: cell-based; conditions: B. bovis in vitro culture, 4 days
Procedure: as §1, §4

SMILES: CC(=O)NCC(=O)O.CC(=O)NCC(=O)O.N=C(N)c1ccc(N=NNc2ccc(C(=N)N)cc2)cc1 [DA, diminazene aceturate]
- IC50 [1]: 22 nM and 20 nM
- EC50 [2]: > 100000 nM
- inhibition of cell viability [2]: did not show any inhibition
- inhibition of cell viability [3]: did not show any inhibition
- EC50 [3]: > 100000 nM
- EC50 [4]: > 100000 nM
- inhibition of cell viability ([4]; MDBK): did not show any inhibition
- IC50 [5]: 680 ± 90 nM
- parasite DNA in blood (nPCR) ([6]; 25 mg/kg DA): not detected
- IC50 [7]: 430 ± 50 nM
- peak parasitemia level ([8]; first assay, 25 mg/kg DA i.p., peak on day 8, DDW control 57.7%): 5.2%
- day p.i. from which parasitemia was undetectable by microscopic examination ([8]; second assay, 25 mg/kg DA): 13 day p.i.
- peak parasitemia level ([8]; second assay, 25 mg/kg DA i.p., DDW control 58.3%): 3.9%
- IC50 [9]: 710 ± 50 nM
- IC50 [10]: 350 ± 60 nM

SMILES: O=C1C(O)=C([C@H]2CC[C@H](c3ccc(Cl)cc3)CC2)C(=O)c2ccccc21 [AQ, atovaquone]
- IC50 ([1]; Babesia caballi, 96 h): 102 ± 14.1 nM
- Selective indices HFF ([2]; EC50 HFF / IC50 B. bigemina): ˃ 12.7
- Selective indices HFF ([2]; EC50 HFF / IC50 B. caballi): ˃ 30.4
- Selective indices HFF ([2]; EC50 HFF / IC50 B. divergens): ˃ 18.5
- Selective indices HFF ([2]; EC50 HFF / IC50 T. equi): ˃ 13.4
- inhibition of cell viability [2]: did not show any inhibition
- EC50 ([2]; Homo sapiens): > 100000 nM
- Selective indices NIH/3T3 ([3]; EC50 NIH/3T3 / IC50 B. bigemina): ˃ 12.7
- Selective indices NIH/3T3 ([3]; EC50 NIH/3T3 / IC50 B. caballi): ˃ 30.4
- Selective indices NIH/3T3 ([3]; EC50 NIH/3T3 / IC50 B. divergens): ˃ 18.5
- Selective indices NIH/3T3 ([3]; EC50 NIH/3T3 / IC50 T. equi): ˃ 13.4
- EC50 ([3]; Mus musculus, NIH3T3): > 100000 nM
- inhibition of cell viability [3]: did not show any inhibition
- EC50 ([4]; Bos taurus, MDBK, 24 h): > 100000 nM
- Selective indices MDBK ([4]; EC50 MDBK / IC50 B. bigemina): ˃ 12.7
- Selective indices MDBK ([4]; EC50 MDBK / IC50 B. caballi): ˃ 30.4
- Selective indices MDBK ([4]; EC50 MDBK / IC50 B. divergens): ˃ 18.5
- Selective indices MDBK ([4]; EC50 MDBK / IC50 T. equi): ˃ 13.4
- inhibition of cell viability ([4]; MDBK): did not show any inhibition
- IC50 ([5]; Babesia bigemina, 96 h): 701 ± 40 nM
- parasite DNA in blood (nPCR) ([6]; 20 mg/kg AQ): not detected
- IC50 ([7]; Babesia divergens, 96 h): 38 ± 2 nM
- day p.i. from which parasitemia was undetectable by microscopic examination ([8]; second assay, 20 mg/kg AQ): 15 day p.i.
- peak parasitemia level ([8]; second assay, 20 mg/kg AQ oral, DDW control 58.3%): 4.3%
- IC50 ([9]; Theileria equi, 96 h): 95 ± 65.5 nM
- IC50 ([10]; Babesia bovis, in Bos taurus, 96 h): 39 ± 2 nM
